Data: patent publication US20070073039A1, “Peptides that inhibit viral infections” (priority 2005, published 2007)
No end group written: not given here.

How the values were obtained:
Dengue-2 = Dengue-2 infection of Vero cells, Intracellular FACS Assay; type: cell-based; details: 20 μM, Vero cells 3 days post-infection; for % of Dead cells PI: propidium iodide staining
Protocol: Intracellular FACS Assay: Vero cells were seeded for 24 h pre-infection in 6-well plates. Cells were exposed to Dengue-2 in the presence of increasing concentrations of peptide (or DMSO as control). Viruses and peptide were washed away 2 h post-infection. Cells were taken for intracellular staining 3 days post-infection. Cells were stained with appropriate isotype control, Dengue Env, Dengue capsid or tubulin antibodies. Cells were analyzed by FACS.

HCV [1] = test: HCV focus reduction assay; type: cell-based, Hepatitis C virus (JFH-1); details: for Focus Reduction (72 h): working concentration 18.4-27.5 μM per peptide, Mock 51; for Inhibition of HCV infection: cell culture model of HCV infection; for Fold Inhibition: inhibition of HCV infection; for Fold Inhibition / % of Mock: peptide approximately 20 μM, Huh-7.5.1 cells, 3 days; for % of Mock: number of HCV foci as % of mock (0.5% DMSO); for Fold inhibition of HCV infection: peptide library screen, approximately 20 μM
Protocol: To identify peptides that display antiviral activity against HCV infection, the peptide library was screened by an HCV focus reduction assay. The peptides were constituted in 100% DMSO at a final concentration 10 mg/mL, and stored in −20° C. The peptide stock solution was diluted 1:200 to a final concentration approximately 20 μM in complete DMEM growth medium containing 50 focus forming units (ffu) of HCV. The virus-peptide mixture was transferred to Huh-7.5.1 cells at a density of 8000 cells per well in a 96-well plate. After adsorption for 4 hours at 37° C., the inoculum was removed. The cells were washed 2 times, overlaid with 120 μL fresh growth medium and incubated at 37° C. After 3 days of culture, the cells were fixed with paraformaldehyde and immunostained with antibody against HCV nonstructural protein NS5A. The numbers of HCV foci were counted under fluorescent microscopy and the result is expressed as percentage (%) of mock with no peptide treatment but containing solvent 0.5% DMSO.
To determine whether the antiviral activity of peptide 1 is dependent on its primary amino acid sequence, four derivative peptides from peptide 1 were synthesized to a purity >95%. The four derivatives having the same composition of amino acids included (1) the reversed the sequence of peptide 1 (also called retro-peptide); (2) scrambled hydrophobic amino acids; (3) scrambled hydrophilic amino acids; and (4) a derivative in which the aspartic acid residues (D) were replaced with proline residues (P). The antiviral activity of the peptides was examined by HCV focus reduction assay at three peptide concentrations: 18 μM, 6 μM and 2 μM, as described above.

HCV [2] = test: Intracellular HCV RNA by real time RT-QPCR after infection of Huh-7.5.1 cells with and without peptide; type: cell-based, Hepatitis C virus (JFH-1); details: for Fold Inhibition on HCV RNA (24 h) / Fold Inhibition on HCV RNA (72 h): working concentration 18.4-27.5 μM per peptide; for HCV RNA fold inhibition 24 h 25 μM / HCV RNA fold inhibition 72 h 25 μM: Huh-7.5.1 cells, MOI 0.1, normalized to GAPDH
Protocol: To accurately quantify the inhibitory effect of the selected peptides on HCV infection, intracellular HCV RNA was measured after infection by real time RT-QPCR with and without peptide treatment. The peptide stock solution was diluted 1:100 and mixed with equal volume of viral supernatant (propagated from day 18 virus preparation post transfection) to a final concentration approximately 20 μM. The virus with peptide or 0.5% DMSO solvent control was then used to infect Huh-7.5.1 cells at a multiplicity of infection (MOI) of 0.1. After an adsorption for 4 hours at 37° C., the inoculum was removed. The cells were washed 2 times, overlaid with 120 μL fresh growth medium and incubated at 37° C. At the indicated time points, total cellular RNA was isolated by the guanidine thiocyanate method. The HCV RNA transcript level was measured by real time RT-QPCR with the primers 5′—
normalized to cellular GAPDH levels.
To define the antiviral action of peptide #1 (SEQ ID NO:43), the antiviral activity of a series of N-terminal and C-terminal truncations of peptide 1 was analyzed using the focus reduction assay and by measuring the reduction in intracellular HCV RNA as described.

[3] = Preliminary in vivo toxicity in mice
Protocol: As a preliminary measurement of the in vivo cytotoxicity of the peptides 1, 2 and 3 (see Table 4) a group of three mice (BALB/c mice, 7 weeks old, about 23 g) were each injected with 92 μg L-type peptide 1 ( ˜4 mg/kg) in 200 μL PBS (spun 14,000 rpm for 3 minutes before injection). In the control group, each of three mice was given 200 μL PBS containing 5% DMSO. The mice were monitored for acute toxicity during the first 3 hours after injection.
No change in appearance, activity or behavior was observed. The mice were then weighed on days 0, 3, 5, 7 and 10. Peptide-injected mice gained weight at the same rate as the controls.

Compound | Focus Reduction (72 h) (HCV [1]) | Fold Inhibition on HCV RNA (24 h) (HCV [2]) [fold] | Fold Inhibition on HCV RNA (72 h) (HCV [2]) [fold] | Inhibition of HCV infection (HCV [1]) | Fold Inhibition (HCV [1]) [fold] | % of Mock (HCV [1]) [%] | Fold inhibition of HCV infection (HCV [1]) | HCV RNA fold inhibition 24 h 25 μM (HCV [2]) [fold] | HCV RNA fold inhibition 72 h 25 μM (HCV [2]) [fold] | further results
SWLRDIWDWI [^C-10mer] | 65 | 0.8 | 0.6 |  |  |  |  |  |  | % GATED, Dengue α-Capsid (9A7) (Dengue-2; DMSO 41.26): 37.21%; % of Dead cells PI (Dengue-2): 1.2%
SWLRDIWD [^C-8mer] | 58 | 1.3 | 1.0 |  |  |  |  |  |  | 
DIWDWICEVLSDFK [^N-14mer] |  |  |  |  |  |  |  |  |  | % of Dead cells PI (Dengue-2): 0.76%
DWICEVLSDFKTWLKAKL [Peptide 13] |  |  |  | strongly inhibit HCV infection | 42.0 | 2.4 | more than ten-fold | 7 | 2 | 
ATQTFLATCINGVCWTVY [Peptide 12] |  |  |  | strongly inhibit HCV infection | 42.0 | 2.4 | more than ten-fold | 8 | 5 | 
IMDMIAGAHWGVLAGIAY [Peptide 9] |  |  |  | strongly inhibit HCV infection | 42.0 | 2.4 | more than ten-fold | 10 | 22 | 
WDWICEVLSDFK [^N-12mer] | 38 | 2.2 | 1.4 |  |  |  |  |  |  | 
CSCC[C@H](NC(=O)[C@H](CO)NC(=O)[C@H](CS)NC(=O)[C@H](CS)NC(=O)[C@@H](NC(=O)[C@@H](NC(=O)[C@H](CC(=O)O)NC(=O)[C@H](CCC(=O)O)NC(=O)[C@@H](NC(=O)[C@H](CC(=O)O)NC(=O)[C@H](C)NC(=O)CNC(=O)[C@H](CO)NC(=O)[C@@H](N)CO)[C@@H](C)O)C(C)C)C(C)C)C(=O)N[C@@H](CO)C(=O)N[C@@H](Cc1ccc(O)cc1)C(=O)N[C@@H](CO)C(=O)N[C@@H](Cc1c[nH]c2ccccc12)C(=O)O [Peptide 3] |  |  |  |  |  |  |  |  |  | In vivo toxicity observation ([3]; 92 μg ( ˜4 mg/kg) in 200 μL PBS, acute toxicity first 3 hours, weight to day 10): Peptides 1, 2 and 3 are Nontoxic in C57BL/6 Mice; Weight(g) (d.0) ([3]; day 0, ˜4 mg/kg injected): 24.1 g; Weight(g) (d.3) ([3]; day 3): 24.1 g; Weight(g) (d.5) ([3]; day 5): 24.7 g; Weight(g) (d.7) ([3]; day 7): 24.7 g; Weight(g) (d.10) ([3]; day 10): 24.7 g
LYGNEGCGWAGWLLSPRG [Peptide 10] |  |  |  |  |  |  |  |  |  | % of Dead cells PI (Dengue-2): 4.05%
SWLRDIWDWICE [^C-12mer] | 107 | 0.8 | 0.5 |  |  |  |  |  |  | 
SWLRDIWDWICEV [^C-13mer] |  |  |  |  |  |  |  |  |  | % of Dead cells PI (Dengue-2): 3.04%
GSATLCSALYVGDLCGSV [Peptide 5] |  |  |  | strongly inhibit HCV infection | 100.0 | 1.0 | more than ten-fold | 26 | 27 | 
IFLLALLSCLTVPASAYQ [Peptide 8] |  |  |  | strongly inhibit HCV infection | 42.0 | 2.4 | more than ten-fold | 18 | 7 | 
SWLRDIWDWICEVLSD [^C-16mer] | 0 | 9852.6 | 234207.1 |  |  |  |  |  |  | 
